Legend:
Assay in all cases: KINOMEscan
Assay type in all cases: binding
Settings in all cases: read-out: percent of control
PRKCE = PRKCE (Homo sapiens (Human), UniProt Q02156)
Description: (§1) In vitro profiling of Compound I-2 (1 μM) was performed using the DiscoveRx KINOMEscan® platform.

PFTK1 = PFTK1 (Homo sapiens (Human), UniProt O94921)
Description: as §1

SGK = SGK (Homo sapiens (Human), UniProt O00141)
Description: as §1

MLK1 = MLK1 (Homo sapiens (Human), UniProt P80192)
Description: as §1

MARK1 = MARK1 (Homo sapiens (Human), UniProt Q9P0L2)
Description: as §1

NEK3 = NEK3 (Homo sapiens (Human), UniProt P51956)
Description: as §1

EGFR(G719C) = EGFR(G719C) (Homo sapiens (Human), UniProt P00533, G719C)
Description: as §1

HUNK = HUNK (Homo sapiens (Human), UniProt P57058)
Description: as §1

BMPR1B = BMPR1B (Homo sapiens (Human), UniProt O00238)
Description: as §1

CDK2 = CDK2 (Homo sapiens (Human), UniProt P24941)
Description: as §1

CDK3 = CDK3 (Homo sapiens (Human), UniProt Q00526)
Description: as §1

LIMK2 = LIMK2 (Homo sapiens (Human), UniProt P53671)
Description: as §1

MAP3K1 = MAP3K1 (Homo sapiens (Human), UniProt Q13233)
Description: as §1

PIKFYVE = PIKFYVE (Homo sapiens (Human), UniProt Q9Y2I7)
PIKFYVE, sequence (Q9Y2I7 whole entry): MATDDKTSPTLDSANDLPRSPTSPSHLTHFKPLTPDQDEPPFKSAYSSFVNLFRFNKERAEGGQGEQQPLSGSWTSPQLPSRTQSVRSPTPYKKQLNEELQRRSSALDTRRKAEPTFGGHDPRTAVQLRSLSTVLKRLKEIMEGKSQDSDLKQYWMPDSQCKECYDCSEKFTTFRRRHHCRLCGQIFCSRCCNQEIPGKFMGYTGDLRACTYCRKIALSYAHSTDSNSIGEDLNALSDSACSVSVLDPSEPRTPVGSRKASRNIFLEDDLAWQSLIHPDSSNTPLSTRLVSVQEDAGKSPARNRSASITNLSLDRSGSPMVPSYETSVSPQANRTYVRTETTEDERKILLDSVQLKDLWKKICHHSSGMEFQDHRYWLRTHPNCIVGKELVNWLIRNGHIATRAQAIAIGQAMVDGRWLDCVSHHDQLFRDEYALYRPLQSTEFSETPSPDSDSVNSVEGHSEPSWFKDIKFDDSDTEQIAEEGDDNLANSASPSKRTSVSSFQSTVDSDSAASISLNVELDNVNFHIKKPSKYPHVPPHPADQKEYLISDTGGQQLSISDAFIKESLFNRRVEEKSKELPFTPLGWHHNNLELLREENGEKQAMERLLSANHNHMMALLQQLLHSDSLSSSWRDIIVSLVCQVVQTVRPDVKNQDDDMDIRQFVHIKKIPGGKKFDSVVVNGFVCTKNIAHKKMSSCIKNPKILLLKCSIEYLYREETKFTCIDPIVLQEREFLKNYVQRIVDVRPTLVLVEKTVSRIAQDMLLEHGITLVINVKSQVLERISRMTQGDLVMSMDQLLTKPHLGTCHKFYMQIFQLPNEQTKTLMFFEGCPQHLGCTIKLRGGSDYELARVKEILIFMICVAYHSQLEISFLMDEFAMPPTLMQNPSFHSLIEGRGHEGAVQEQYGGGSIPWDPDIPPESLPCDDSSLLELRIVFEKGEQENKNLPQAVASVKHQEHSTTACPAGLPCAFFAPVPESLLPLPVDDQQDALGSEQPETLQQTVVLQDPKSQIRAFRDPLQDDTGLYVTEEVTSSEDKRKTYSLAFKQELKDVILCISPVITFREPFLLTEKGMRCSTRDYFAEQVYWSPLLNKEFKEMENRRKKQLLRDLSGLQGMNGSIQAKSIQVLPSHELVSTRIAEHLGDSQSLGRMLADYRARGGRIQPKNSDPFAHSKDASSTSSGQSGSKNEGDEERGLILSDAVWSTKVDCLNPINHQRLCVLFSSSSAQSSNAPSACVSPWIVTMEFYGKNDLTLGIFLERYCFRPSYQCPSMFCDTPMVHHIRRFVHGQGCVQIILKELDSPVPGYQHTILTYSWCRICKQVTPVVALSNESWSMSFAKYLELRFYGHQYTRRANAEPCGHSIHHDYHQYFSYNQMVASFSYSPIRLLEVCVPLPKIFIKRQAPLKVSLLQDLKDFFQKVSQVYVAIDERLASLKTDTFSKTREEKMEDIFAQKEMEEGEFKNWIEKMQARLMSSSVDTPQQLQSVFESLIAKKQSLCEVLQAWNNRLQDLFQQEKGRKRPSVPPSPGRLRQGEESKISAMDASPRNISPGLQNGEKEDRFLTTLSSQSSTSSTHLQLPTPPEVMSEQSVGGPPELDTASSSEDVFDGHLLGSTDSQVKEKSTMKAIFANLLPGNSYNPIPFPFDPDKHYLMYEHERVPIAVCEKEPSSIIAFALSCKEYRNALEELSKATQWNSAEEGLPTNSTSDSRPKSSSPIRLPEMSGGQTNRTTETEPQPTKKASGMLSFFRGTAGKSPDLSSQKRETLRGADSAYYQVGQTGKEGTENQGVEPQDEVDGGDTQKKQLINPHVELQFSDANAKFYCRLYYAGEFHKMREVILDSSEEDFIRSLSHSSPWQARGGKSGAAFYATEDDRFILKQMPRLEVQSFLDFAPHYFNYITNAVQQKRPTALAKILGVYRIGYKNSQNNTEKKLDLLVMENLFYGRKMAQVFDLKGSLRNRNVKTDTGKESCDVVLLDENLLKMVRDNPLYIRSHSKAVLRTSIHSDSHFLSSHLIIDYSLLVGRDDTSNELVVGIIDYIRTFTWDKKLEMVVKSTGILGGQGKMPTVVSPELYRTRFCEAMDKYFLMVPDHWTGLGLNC
Description: as §1

SIK2 = SIK2 (Homo sapiens (Human), UniProt Q9H0K1)
Description: as §1

LATS1 = LATS1 (Homo sapiens (Human), UniProt O95835)
Description: as §1

PCTK3 = PCTK3 (Homo sapiens (Human), UniProt Q07002)
Description: as §1

FES = FES (Homo sapiens (Human), UniProt P07332)
Description: as §1

ROCK2 = ROCK2 (Homo sapiens (Human), UniProt O75116)
Description: as §1

CDKL3 = CDKL3 (Homo sapiens (Human), UniProt Q8IVW4)
Description: as §1

GRK4 = GRK4 (Homo sapiens (Human), UniProt P32298)
Description: as §1

ERK5 = ERK5 (Homo sapiens (Human), UniProt Q13164)
Description: as §1

SNARK = SNARK (Homo sapiens (Human), UniProt Q9H093)
Description: as §1

BRSK1 = BRSK1 (Homo sapiens (Human), UniProt Q8TDC3)
Description: as §1

[1] = target: ABL1(Q252H)-phosphorylated (Homo sapiens (Human), UniProt P00519, Q252H)
Description: as §1

[2] = target: RSK4 (Kin.Dom.2-C-terminal) (Homo sapiens (Human), UniProt Q9UK32)
RSK4 (Kin.Dom.2-C-terminal), sequence (Q9UK32 426-683): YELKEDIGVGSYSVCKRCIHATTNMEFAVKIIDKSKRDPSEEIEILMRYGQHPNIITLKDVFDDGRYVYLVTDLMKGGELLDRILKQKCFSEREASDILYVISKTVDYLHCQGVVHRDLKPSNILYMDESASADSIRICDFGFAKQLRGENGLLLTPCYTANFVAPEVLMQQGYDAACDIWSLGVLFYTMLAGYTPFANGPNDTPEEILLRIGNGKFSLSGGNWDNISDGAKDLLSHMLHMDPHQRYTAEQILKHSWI
Description: as §1

SgK110 = SgK110 (Homo sapiens (Human), UniProt P0C264)
Description: as §1

ERBB3 = ERBB3 (Homo sapiens (Human), UniProt P21860)
Description: as §1

ALK(L1196M) = ALK(L1196M) (Homo sapiens (Human), UniProt Q9UM73, L1196M)
Description: as §1

MARK4 = MARK4 (Homo sapiens (Human), UniProt Q96L34)
Description: as §1

HIPK3 = HIPK3 (Homo sapiens (Human), UniProt Q9H422)
Description: as §1

PYK2 = PYK2 (Homo sapiens (Human), UniProt Q14289)
Description: as §1

ASK2 = ASK2 (Homo sapiens (Human), UniProt O95382)
Description: as §1

CDK7 = CDK7 (Homo sapiens (Human), UniProt P50613)
Description: as §1

BMPR2 = BMPR2 (Homo sapiens (Human), UniProt Q13873)
Description: as §1

TIE1 = TIE1 (Homo sapiens (Human), UniProt P35590)
Description: as §1

[3] = target: RPS6KA4 (Kin.Dom.2-C-terminal) (Homo sapiens (Human), UniProt O75676)
Description: as §1

CDK4-cyclinD1 = CDK4-cyclinD1 (Homo sapiens (Human), UniProt P11802)
Description: as §1

MAP4K4 = MAP4K4 (Homo sapiens (Human), UniProt O95819)
MAP4K4, sequence (O95819 whole entry): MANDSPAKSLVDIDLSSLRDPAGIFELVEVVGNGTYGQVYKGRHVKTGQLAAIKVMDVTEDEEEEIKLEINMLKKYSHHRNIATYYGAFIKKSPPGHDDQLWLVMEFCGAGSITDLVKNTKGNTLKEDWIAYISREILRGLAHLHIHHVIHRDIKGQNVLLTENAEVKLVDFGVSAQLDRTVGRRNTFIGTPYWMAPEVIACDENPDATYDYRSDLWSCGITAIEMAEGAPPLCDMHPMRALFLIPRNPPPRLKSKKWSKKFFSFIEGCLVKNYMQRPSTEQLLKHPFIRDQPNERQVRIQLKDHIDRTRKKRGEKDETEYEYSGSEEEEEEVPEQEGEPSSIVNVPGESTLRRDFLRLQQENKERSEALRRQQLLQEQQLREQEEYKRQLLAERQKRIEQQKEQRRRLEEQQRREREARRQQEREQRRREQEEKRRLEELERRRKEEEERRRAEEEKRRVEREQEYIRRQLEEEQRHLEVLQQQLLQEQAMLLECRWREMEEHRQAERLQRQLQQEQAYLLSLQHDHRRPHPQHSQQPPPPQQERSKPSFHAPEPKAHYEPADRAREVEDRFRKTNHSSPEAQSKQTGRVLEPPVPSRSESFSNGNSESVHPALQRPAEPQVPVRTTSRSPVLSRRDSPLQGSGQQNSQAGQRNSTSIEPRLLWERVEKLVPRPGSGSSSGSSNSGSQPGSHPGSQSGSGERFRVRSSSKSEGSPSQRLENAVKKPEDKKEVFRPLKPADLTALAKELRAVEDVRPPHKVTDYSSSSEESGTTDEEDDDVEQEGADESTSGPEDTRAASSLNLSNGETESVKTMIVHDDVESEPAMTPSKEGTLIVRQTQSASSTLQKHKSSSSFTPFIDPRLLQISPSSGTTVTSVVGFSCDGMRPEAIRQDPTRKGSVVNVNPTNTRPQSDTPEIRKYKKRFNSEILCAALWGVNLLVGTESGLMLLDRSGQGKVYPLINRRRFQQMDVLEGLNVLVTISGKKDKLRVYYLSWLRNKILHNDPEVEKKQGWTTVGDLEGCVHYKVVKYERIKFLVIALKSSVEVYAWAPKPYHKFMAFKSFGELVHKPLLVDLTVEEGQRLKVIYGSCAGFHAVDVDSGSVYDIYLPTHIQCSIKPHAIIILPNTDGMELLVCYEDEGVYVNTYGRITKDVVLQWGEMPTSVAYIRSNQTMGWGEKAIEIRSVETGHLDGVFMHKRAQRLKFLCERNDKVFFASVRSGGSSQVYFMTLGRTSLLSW
Description: as §1

SGK, sequence (O00141 whole entry): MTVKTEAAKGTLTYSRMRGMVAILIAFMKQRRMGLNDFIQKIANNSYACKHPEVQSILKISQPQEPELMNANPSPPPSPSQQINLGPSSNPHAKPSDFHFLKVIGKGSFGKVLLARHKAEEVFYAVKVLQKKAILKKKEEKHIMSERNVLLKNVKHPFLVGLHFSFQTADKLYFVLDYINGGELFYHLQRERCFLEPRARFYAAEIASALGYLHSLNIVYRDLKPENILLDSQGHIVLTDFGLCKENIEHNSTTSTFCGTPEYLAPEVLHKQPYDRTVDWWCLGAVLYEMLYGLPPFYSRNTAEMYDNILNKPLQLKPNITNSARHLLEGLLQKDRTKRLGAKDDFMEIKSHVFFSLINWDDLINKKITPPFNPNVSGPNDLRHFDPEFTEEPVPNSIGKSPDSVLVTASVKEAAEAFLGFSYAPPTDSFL
MLK1, sequence (P80192 whole entry): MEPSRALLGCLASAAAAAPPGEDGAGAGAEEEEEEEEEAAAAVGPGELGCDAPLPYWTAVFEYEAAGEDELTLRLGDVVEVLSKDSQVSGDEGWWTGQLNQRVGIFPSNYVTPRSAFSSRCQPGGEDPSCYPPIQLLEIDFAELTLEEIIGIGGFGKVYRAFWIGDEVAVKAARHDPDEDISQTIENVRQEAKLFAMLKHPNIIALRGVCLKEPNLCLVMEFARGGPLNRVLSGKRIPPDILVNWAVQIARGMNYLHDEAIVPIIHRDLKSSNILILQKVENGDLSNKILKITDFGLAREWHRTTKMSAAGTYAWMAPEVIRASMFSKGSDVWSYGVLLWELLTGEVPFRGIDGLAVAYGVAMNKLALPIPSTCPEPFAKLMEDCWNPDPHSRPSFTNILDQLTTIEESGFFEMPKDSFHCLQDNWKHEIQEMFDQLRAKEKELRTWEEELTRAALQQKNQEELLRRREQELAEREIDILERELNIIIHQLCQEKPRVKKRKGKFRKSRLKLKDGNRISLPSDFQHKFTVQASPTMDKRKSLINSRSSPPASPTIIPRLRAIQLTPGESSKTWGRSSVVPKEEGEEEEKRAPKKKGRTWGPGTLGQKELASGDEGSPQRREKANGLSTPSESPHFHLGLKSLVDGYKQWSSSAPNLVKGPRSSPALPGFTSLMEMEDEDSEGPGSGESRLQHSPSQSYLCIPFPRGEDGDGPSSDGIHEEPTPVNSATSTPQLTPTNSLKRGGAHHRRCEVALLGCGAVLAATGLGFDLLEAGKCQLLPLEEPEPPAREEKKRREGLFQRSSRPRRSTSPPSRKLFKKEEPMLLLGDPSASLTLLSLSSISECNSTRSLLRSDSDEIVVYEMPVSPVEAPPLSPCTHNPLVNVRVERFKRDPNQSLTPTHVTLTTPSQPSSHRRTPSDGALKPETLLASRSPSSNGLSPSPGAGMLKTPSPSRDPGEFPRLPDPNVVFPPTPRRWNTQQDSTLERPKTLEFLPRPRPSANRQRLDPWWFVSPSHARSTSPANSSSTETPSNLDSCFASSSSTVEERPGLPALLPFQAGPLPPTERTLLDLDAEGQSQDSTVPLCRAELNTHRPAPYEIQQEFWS

| SMILES | remaining binding at 1 µM (PRKCE) | remaining binding at 1 µM (PFTK1) | remaining binding at 1 µM (SGK) | remaining binding at 1 µM (MLK1) | remaining binding at 1 µM (MARK1) | remaining binding at 1 µM (NEK3) | remaining binding at 1 µM (EGFR(G719C)) | remaining binding at 1 µM (HUNK) | remaining binding at 1 µM (BMPR1B) | remaining binding at 1 µM (CDK2) | remaining binding at 1 µM (CDK3) | remaining binding at 1 µM (LIMK2) | remaining binding at 1 µM (MAP3K1) | remaining binding at 1 µM (PIKFYVE) | remaining binding at 1 µM (SIK2) | remaining binding at 1 µM (LATS1) | remaining binding at 1 µM (PCTK3) | remaining binding at 1 µM (FES) | remaining binding at 1 µM (ROCK2) | remaining binding at 1 µM (CDKL3) | other results |
| --- | --- | --- | --- | --- | --- | --- | --- | --- | --- | --- | --- | --- | --- | --- | --- | --- | --- | --- | --- | --- | --- |
| CCN1CCN(Cc2cc(NC(=O)c3ccc(C)c(-c4ccc5nc(NC(=O)C6CC6)cn5n4)c3)cc(C(F)(F)F)c2)CC1 [Compound I-2, 3-(2-(cyclopropanecarboxamido)imidazo[1,2-b]pyridazin-6-yl)-N-(3-((4-ethylpiperazin-1-yl)methyl)-5-(trifluoromethyl)phenyl)-4-methylbenzamide] | 86% | 0.35% | 83% | 75% | 91% | 100% | 53% | 80% | 84% | 7% | 5.7% | 96% | 97% | 93% | 100% | 87% | 4.8% | 12% | 82% | 0.4% | remaining binding at 1 µM (GRK4): 81%; remaining binding at 1 µM (ERK5): 95%; remaining binding at 1 µM (SNARK): 100%; remaining binding at 1 µM (BRSK1): 100%; remaining binding at 1 µM [1]: 0.35%; remaining binding at 1 µM [2]: 94%; remaining binding at 1 µM (SgK110): 75%; remaining binding at 1 µM (ERBB3): 100%; remaining binding at 1 µM (ALK(L1196M)): 9.9%; remaining binding at 1 µM (MARK4): 84%; remaining binding at 1 µM (HIPK3): 56%; remaining binding at 1 µM (PYK2): 3.2%; remaining binding at 1 µM (ASK2): 99%; remaining binding at 1 µM (CDK7): 0.55%; remaining binding at 1 µM (BMPR2): 100%; remaining binding at 1 µM (TIE1): 0%; remaining binding at 1 µM [3]: 79%; remaining binding at 1 µM (CDK4-cyclinD1): 19%; remaining binding at 1 µM (MAP4K4): 0.15% |
| CCN1CCN(Cc2cc(NC(=O)c3ccc(C)c(-c4ccc5nc(NC(=O)C6CC6)cn5c4)c3)cc(C(F)(F)F)c2)CC1 [Compound I-6, 3-(2-(cyclopropanecarboxamido)imidazo[1,2-a]pyridin-6-yl)-N-(3-((4-ethylpiperazin-1-yl)methyl)-5-(trifluoromethyl)phenyl)-4-methylbenzamide] | 83% | 2.4% | 92% | 94% | 77% | 96% | 46% | 96% | 86% | 60% | 40% | 100% | 94% | 100% | 100% | 85% | 27% | 0.95% | 94% | 0% | remaining binding at 1 µM (GRK4): 98%; remaining binding at 1 µM (ERK5): 92%; remaining binding at 1 µM (SNARK): 100%; remaining binding at 1 µM (BRSK1): 96%; remaining binding at 1 µM [1]: 0.6%; remaining binding at 1 µM [2]: 77%; remaining binding at 1 µM (SgK110): 57%; remaining binding at 1 µM (ERBB3): 93%; remaining binding at 1 µM (ALK(L1196M)): 21%; remaining binding at 1 µM (MARK4): 80%; remaining binding at 1 µM (HIPK3): 98%; remaining binding at 1 µM (PYK2): 4.1%; remaining binding at 1 µM (ASK2): 64%; remaining binding at 1 µM (CDK7): 1%; remaining binding at 1 µM (BMPR2): 100%; remaining binding at 1 µM (TIE1): 4%; remaining binding at 1 µM [3]: 100%; remaining binding at 1 µM (CDK4-cyclinD1): 17%; remaining binding at 1 µM (MAP4K4): 0.75% |

Reference: patent US20230391768A2, “IMIDAZOPYRIDINE DERIVATIVES AND AZA-IMIDAZOPYRIDINE DERIVATIVES AS JANUS KINASE 2 INHIBITORS AND USES THEREOF” (Dana-Farber Cancer Institute, Inc., priority 2018, published 2023)
